Source: patent US8829014B2, “Thiazole and thiophene analogues, and their use in treating autoimmune diseases and cancers” (Board of Supervisors of Louisiana State University and …, priority 2006, dated 2014)

What was measured:
Assay type in all cases: cell-based
NF-κB = NF-κB inhibitor screen: basal NF-κB-dependent luciferase expression in HEK/NF-κB cell line
How it was run: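 HEK293 cells stably carrying a luciferase reporter under six NF-κB elements were treated with compound, unstimulated, 24 h after plating. Compounds were first tested at 1.0 μM (0.3% DMSO), later at six doses from 10 to 3300 nM, in triplicate. Brite-Glo luciferase signal was normalized to DMSO, or to the lowest dose for dose-response runs.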

AP-1 = AP-1 inhibitor screen: basal AP-1-dependent luciferase expression in HEK/AP-1 cell line; conditions: 1.0 μM, 48 hr screen of 39 compounds (FIG. 13)
How it was run: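 HEK293 cells stably carrying a luciferase reporter driven by three AP-1 elements were plated 24 hr, then given compound at 1.0 μM in 0.3% DMSO for 48 hr, in triplicate. Basal expression without stimulus was read as luminescence (Brite-Glo), normalized to DMSO; dose-response runs repeated two to four times.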

eIF4E = eIF4E inhibitor screen: luciferase under FGF 5′UTR in FaDu cells (highly cap-dependent translation)
Description: Since highly cap-dependent translation is associated with synthesis of proteins involved in cancer, a compound that inhibits this pathway may be used as an anti-cancer agent. The assay was developed by cloning the highly structured 5′ UTR of FGF, which requires high levels of eIF4E before protein synthesis can initiate, into the proper orientation of the reporter gene luciferase, and then stably transfecting the modified luciferase gene into the cell line FaDu that is known to have high levels of eIF4E. The activity of luciferase is then monitored in the presence and absence of the tested compound.
Generation of Stable Cell Lines: The pMS110 plasmid (pGL3-control plasmid from Promega which contains a neo selectable marker) was used to generate pMS110-5′UTR by cloning the 5′ UTR of FGF just upstream of the luciferase AUG start codon. FaDu cells, a head and neck cancer cell line, were transfected using Lipofectamine2000 (Invitrogen). Twenty-four hours after transfection G418 was added at 500 μg/ml. Cells were maintained in G418 for 14 days, and then individual colonies were transferred to a 96-well plate for propagation. Individual clones were analyzed for luciferase expression by plating 10^4 cells per well in a 96-well plate for 24 hours before lysing the cells and analyzing for luciferase activity in a Victor III (Perkin Elmer) or Lucy2 (Rosys Anthos). FaDu9000 and FaDuUTR were the clones that expressed the highest level of active luciferase following transfection of pMS110 and pMS110-5′UTR, respectively.
Analysis of Rapamycin Responsiveness: Cells of FaDu9000 and FaDuUTR were plated at 1×10^4 cells/well in a 96-well dish. Twenty-four hours after plating, 0.1% DMSO (vehicle control) or 10 nM rapamycin were added to each well, and the cells were maintained for an additional 24 or 48 hours. The cells were then lysed and luciferase activity was determined using BriteGlo (Promega) as per manufacturer's instruction and recorded using the Victor III. Following subtraction of background activity, the mean value of quadruplicate samples for a given experiment was determined, and the treated cells were normalized to the control. At least four separate experiments were conducted, and the mean and standard error were calculated. To determine if rapamycin affected cell viability, an MTS assay (Cell Proliferation One Solution, Promega) was carried out on each population at 48 hours in two separate experiments.
The FaDu cell line stably transfected with FGF 5′UTR was used to screen thirty-nine representative compounds, each at a concentration of 1.0 μM. Additional cells were treated with vehicle, 0.3% DMSO. Cells were plated for twenty-four hours in a 96-well plate. Each compound was then added to triplicate wells, and the cells were incubated for forty-eight hours before measuring luciferase activity as above. The mean luciferase activity was measured using Promega's Brite-Glo kit, and the mean for each sample was normalized to DMSO. The experiment was then repeated, and the average and standard deviation of the two experiments were determined (FIG. 8).

FaDu cells = conditions: MTT, 24 hr, 10 nM to 3.3 μM (FIG. 9)
Description: […]. Values greater than 1.0 indicate activation, and values less than 1.0 indicate inhibition.) The compounds that inhibited luciferase translation might, potentially, act by generally inhibiting translation, by reducing cell numbers through inhibition of growth or by cell toxicity, or specifically by inhibiting highly cap-dependent translation. To analyze any general effects on cell viability, fourteen compounds were selected that altered luciferase activity (including a few that increased activity) to test for any effects on cell number. An MTT assay was used to monitor compounds for inhibition of cell growth and cell toxicity. The compounds were tested once in a six-point dose-response assay starting at 10 nM and increasing to 3.3 μM. FaDu cells were plated in a 96-well plate for 24 hr before addition of the compounds. Each compound was added in each of six concentrations (10 nM, 30 nM, 100 nM, 330 nM, 1000 nM, and 3300 nM), and each concentration was tested in triplicate. In addition, DMSO was used as a control. After incubating for 24 hr, the cell number was measured using the MTT assay.

## COc1ccc(C(=O)c2sc(Nc3ccc(Cl)cc3)nc2-c2ccncc2)cc1 [Example 116]
NF-κB; 10 nM-3300 nM (FIG. 12)
  basal NF-κB-dependent luciferase, six-point dose response: robust inhibition
NF-κB; 3.3 μM (FIG. 12)
  inhibition of basal NF-κB-dependent luciferase expression: about 50%
NF-κB; summary in the disclosure
  inhibition of NF-κB (summary statement): capable of inhibiting
AP-1
  basal AP-1-dependent luciferase expression: almost complete inhibition
eIF4E; 1.0 μM, 48 h, FaDu UTR cells, normalized to DMSO (FIG. 8)
  luciferase expression under the control of the FGF 5′UTR: inhibited luciferase expression
eIF4E; highest concentration tested
  inhibition of luciferase activity (FGF 5′UTR): greater than 90%
eIF4E; summary in the disclosure
  inhibition of highly cap-dependent translation (summary statement): capable of inhibiting
FaDu cells
  FaDu cell number / growth / viability: inhibited cell numbers at each concentration tested
